Source: paper PMC8080530, “Glucocorticoid receptor Thr524 phosphorylation by MINK1 induces interactions with 14-3-3 protein regulators” (The Journal of Biological Chemistry, 2021)
Where two headings read alike, the source gives them in different places. Non-standard residues stand in square brackets, D forms with d. Residues, ends and D or L forms follow the SMILES beside them. Primed or numbered codes have the meaning given here. No end group written: not given here. *: point of attachment. FITC′ = fluorescein isothiocyanate tag added on resin (method C); FITC = O=C1OC2(c3ccc(O)cc3Oc3cc(O)ccc32)c2ccc(NC(=S)*)cc21; 6FAM = O=C1OC2(c3ccc(O)cc3Oc3cc(O)ccc32)c2cc(C(=O)*)ccc21; pT = C[C@@H](OP(=O)(O)O)[C@H](N)C(=O)O; pS = N[C@@H](COP(=O)(O)O)C(=O)O

T1: 14-3-3ζ (Homo sapiens, UniProt P63104)
T1 construct: Full-length expression and purification of 14-3-3; made in house; host or cells: E. coli BL21 (DE3)STAR
T1 sequence (P63104 1-245): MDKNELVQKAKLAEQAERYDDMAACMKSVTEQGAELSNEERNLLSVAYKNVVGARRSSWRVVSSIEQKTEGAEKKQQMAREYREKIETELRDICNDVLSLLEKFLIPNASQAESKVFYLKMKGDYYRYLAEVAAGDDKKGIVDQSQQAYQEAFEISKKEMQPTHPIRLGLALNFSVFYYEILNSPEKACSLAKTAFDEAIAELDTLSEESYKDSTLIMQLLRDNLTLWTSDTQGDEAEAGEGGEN

T2: human 14-3-3σ, full length, 6His-Linker-h14-3-3 (human, UniProt P31947 1-248)
T2 construct: 14-3-3 protein sigma, human, cloned in pProEx Htb; also called σ isoform of human 14-3-3; source: E. coli BL21 (DE3)STAR, purified (Ni-NTA, SEC); not shown: His6 with linker [residues removed], N-terminal, kept
T2 sequence (looked up): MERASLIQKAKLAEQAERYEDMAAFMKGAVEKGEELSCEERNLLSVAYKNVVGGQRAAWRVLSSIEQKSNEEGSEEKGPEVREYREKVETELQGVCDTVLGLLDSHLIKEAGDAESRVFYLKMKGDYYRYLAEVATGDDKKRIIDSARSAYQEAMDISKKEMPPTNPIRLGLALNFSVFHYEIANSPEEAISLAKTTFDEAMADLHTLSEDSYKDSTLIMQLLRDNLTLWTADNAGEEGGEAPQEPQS


Tests used:
14-3-3ζ = molecular target: T1, 14-3-3ζ; assay: FP assay with GR phosphorylated peptides and 14-3-3ζ; type: binding
Outline: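 Fluorescence polarization (ex 485/em 520 nm) was read in triplicate after 30-min RT incubation. Binding data were fitted to a standard Hill equation and expressed in mP units. The dynamic range (ΔmP) is the difference between bound and free peptide signals.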

[1] = molecular target: T2, human 14-3-3σ, full length, …; assay: fluorescence polarisation; FITC-labelled peptide at 60 nM (monophosphorylated) or 10 nM (doubly phosphorylated) titrated with 14-3-3ζ or 14-3-3σ in dilution series from 300 μM or 150 μM; 30 min at RT; 384-well plate; Hill fit; triplicates; settings: both partners purified
[2] = read-out: PKd with 14-3-3ζ (converted)
[3] = FITC-labeled peptide 60 nM (monophosphorylated) or 10 nM (doubly phosphorylated) titrated with 14-3-3ζ, 30 min RT, Hill fit, triplicates, read-out: Kd with 14-3-3ζ by FP

| Molecule | Kd (14-3-3ζ; [2]) [nM] | Kd (14-3-3ζ; [3]) [nM] | also measured |
| --- | --- | --- | --- |
| CC[C@H](C)[C@H](NC(=O)[C@@H](NC(=O)[C@@H](N)CCCCN)[C@@H](C)O)C(=O)N[C@H](C(=O)N1CCC[C@H]1C(=O)N[C@@H](C)C(=O)N[C@H](C(=O)N[C@@H](CC(C)C)C(=O)N1CCC[C@H]1C(=O)N[C@@H](CCC(N)=O)C(=O)N[C@@H](CC(C)C)C(=O)N[C@H](C(=O)N1CCC[C@H]1C(=O)NCC(=O)NCC(=O)NCC(=O)NCC(=O)NCC(=O)N[C@@H](CCCNC(=N)N)C(=O)N[C@@H](CO)C(=O)N[C@@H](Cc1ccc(O)cc1)C(=O)N[C@@H](CCCNC(=N)N)C(=O)N[C@@H](CCC(N)=O)C(=O)N[C@@H](CO)C(=O)N[C@@H](COP(=O)(O)O)C(=O)N[C@@H](C)C(=O)N[C@@H](CC(N)=O)C(=O)N[C@@H](CC(C)C)C(=O)N[C@@H](CC(C)C)C(=O)N[C@@H](C)C(=O)N[C@@H](Cc1ccccc1)C(=O)O)[C@@H](C)O)[C@@H](C)OP(=O)(O)O)C(C)C [GR_C622A] (H-KTIVPA[pT]LPQLTPGGGGGRSYRQS[pS]ANLLAF-OH) | 63.1 | – | – |
| CC(C)C[C@H](NC(=O)[C@H](CO)NC(=O)[C@H](CCC(=O)O)NC(=O)[C@H](CCCCN)NC(=O)[C@H](CO)NC(=O)[C@@H](N)CC(=O)O)C(=O)N[C@H](C(=O)N1CCC[C@H]1C(=O)NCC(=O)N[C@@H](CCCNC(=N)N)C(=O)N[C@@H](CCC(=O)O)C(=O)N[C@@H](CCC(=O)O)C(=O)N[C@@H](CC(N)=O)C(=O)O)[C@@H](C)OP(=O)(O)O [GR_pT8] (H-DSKESL[pT]PGREEN-OH; N-terminus assumed) | – | > 150000 | – |
| CC[C@H](C)[C@H](NC(=O)[C@@H](NC(=O)[C@@H](N)CCCCN)[C@@H](C)O)C(=O)N[C@H](C(=O)N1CCC[C@H]1C(=O)N[C@@H](C)C(=O)N[C@H](C(=O)N[C@@H](CC(C)C)C(=O)N1CCC[C@H]1C(=O)N[C@@H](CCC(N)=O)C(=O)N[C@@H](CC(C)C)C(=O)N[C@H](C(=O)N1CCC[C@H]1C(=O)NCC(=O)NCC(=O)NCC(=O)NCC(=O)NCC(=O)N[C@@H](CCCNC(=N)N)C(=O)N[C@@H](CO)C(=O)N[C@@H](Cc1ccc(O)cc1)C(=O)N[C@@H](CCCNC(=N)N)C(=O)N[C@@H](CCC(N)=O)C(=O)N[C@@H](CO)C(=O)N[C@@H](COP(=O)(O)O)C(=O)N[C@@H](C)C(=O)N[C@@H](CC(N)=O)C(=O)N[C@@H](CC(C)C)C(=O)N[C@@H](CC(C)C)C(=O)N[C@@H](CS)C(=O)N[C@@H](C)C(=O)O)[C@@H](C)O)[C@@H](C)OP(=O)(O)O)C(C)C [GR_F623A] (H-KTIVPA[pT]LPQLTPGGGGGRSYRQS[pS]ANLLCA-OH) | 50.1 | – | – |
| CSCC[C@H](NC(=O)[C@H](CO)NC(=O)[C@H](CC(C)C)NC(=O)[C@H](COP(=O)(O)O)NC(=O)[C@@H](NC(=O)[C@H](C)NC(=O)[C@H](CCCCN)NC(=O)[C@H](CO)NC(=O)[C@H](CC(C)C)NC(=O)[C@H](CC(=O)O)NC(=O)c1ccc2c(c1)C1(OC2=O)c2ccc(O)cc2Oc2cc(O)ccc21)C(C)C)C(=O)NCC(=O)N[C@@H](CC(C)C)C(=O)N[C@@H](Cc1ccc(O)cc1)C(=O)NCC(=O)NCC(=O)NCC(=O)NCC(=O)NCC(=O)N[C@@H](CC(N)=O)C(=O)N[C@@H](CC(C)C)C(=O)N[C@@H](CC(N)=O)C(=O)N[C@@H](CCCNC(=N)N)C(=O)N[C@@H](CO)C(=O)N[C@H](C(=O)N[C@@H](COP(=O)(O)O)C(=O)N[C@H](C(=O)N1CCC[C@H]1C(=O)N[C@@H](CCC(=O)O)C(=O)N[C@@H](CC(N)=O)C(=O)N1CCC[C@H]1C(=O)N[C@@H](CCCCN)C(=O)O)C(C)C)[C@@H](C)O [GR_pS83-pS134] (6FAM-DLSKAV[pS]LSMGLYGGGGGNLNRST[pS]VPENPK-OH; C-terminus assumed) | – | 22000 ± 8000 | fold decrease in binding affinity with 14-3-3ζ relative to GR_pT524-pS617 (14-3-3ζ; ratio of Kd values): at least 15 fold |
| CC[C@H](C)[C@H](NC(=O)[C@@H](NC(=O)[C@@H](N)CCCCN)[C@@H](C)O)C(=O)N[C@H](C(=O)N1CCC[C@H]1C(=O)N[C@@H](C)C(=O)N[C@H](C(=O)N[C@@H](CC(C)C)C(=O)N[C@@H](C)C(=O)N[C@@H](CCC(N)=O)C(=O)N[C@@H](CC(C)C)C(=O)N[C@H](C(=O)N1CCC[C@H]1C(=O)NCC(=O)NCC(=O)NCC(=O)NCC(=O)NCC(=O)N[C@@H](CCCNC(=N)N)C(=O)N[C@@H](CO)C(=O)N[C@@H](Cc1ccc(O)cc1)C(=O)N[C@@H](CCCNC(=N)N)C(=O)N[C@@H](CCC(N)=O)C(=O)N[C@@H](CO)C(=O)N[C@@H](COP(=O)(O)O)C(=O)N[C@@H](C)C(=O)N[C@@H](CC(N)=O)C(=O)N[C@@H](CC(C)C)C(=O)N[C@@H](CC(C)C)C(=O)N[C@@H](CS)C(=O)N[C@@H](Cc1ccccc1)C(=O)O)[C@@H](C)O)[C@@H](C)OP(=O)(O)O)C(C)C [GR_P526A] (H-KTIVPA[pT]LAQLTPGGGGGRSYRQS[pS]ANLLCF-OH) | 1260 | – | – |
| CC[C@H](C)[C@H](NC(=O)[C@@H](NC(=O)[C@@H](N)CCCCN)[C@@H](C)O)C(=O)N[C@H](C(=O)N1CCC[C@H]1C(=O)N[C@@H](C)C(=O)N[C@H](C(=O)N[C@@H](CC(C)C)C(=O)N1CCC[C@H]1C(=O)N[C@@H](CCC(N)=O)C(=O)N[C@@H](CC(C)C)C(=O)N[C@H](C(=O)N[C@@H](C)C(=O)NCC(=O)NCC(=O)NCC(=O)NCC(=O)NCC(=O)N[C@@H](CCCNC(=N)N)C(=O)N[C@@H](CO)C(=O)N[C@@H](Cc1ccc(O)cc1)C(=O)N[C@@H](CCCNC(=N)N)C(=O)N[C@@H](CCC(N)=O)C(=O)N[C@@H](CO)C(=O)N[C@@H](COP(=O)(O)O)C(=O)N[C@@H](C)C(=O)N[C@@H](CC(N)=O)C(=O)N[C@@H](CC(C)C)C(=O)N[C@@H](CC(C)C)C(=O)N[C@@H](CS)C(=O)N[C@@H](Cc1ccccc1)C(=O)O)[C@@H](C)O)[C@@H](C)OP(=O)(O)O)C(C)C [GR_P530A] (H-KTIVPA[pT]LPQLTAGGGGGRSYRQS[pS]ANLLCF-OH) | 31.6 | – | – |
| CC(C)C[C@H](NC(=O)[C@@H](NC(=O)[C@@H](NC(=O)[C@H](CC(N)=O)NC(=O)[C@H](CO)NC(=O)[C@@H]1CCCN1C(=O)[C@H](COP(=O)(O)O)NC(=O)[C@H](CO)NC(=O)[C@H](CC(C)C)NC(=O)[C@@H](NC(=O)[C@H](CC(C)C)NC(=O)[C@H](CC(=O)O)NC(=O)CN)C(C)C)C(C)C)[C@@H](C)O)C(=O)O [GR_pS267] (H-GDLVLS[pS]PSNVTL-OH; N-terminus assumed) | – | > 150000 | – |
| CC[C@H](C)[C@H](NC(=O)[C@@H](NC(=O)[C@@H](N)CCCCN)[C@@H](C)O)C(=O)N[C@H](C(=O)N1CCC[C@H]1C(=O)N[C@@H](C)C(=O)N[C@H](C(=O)N[C@@H](C)C(=O)N1CCC[C@H]1C(=O)N[C@@H](CCC(N)=O)C(=O)N[C@@H](CC(C)C)C(=O)N[C@H](C(=O)N1CCC[C@H]1C(=O)NCC(=O)NCC(=O)NCC(=O)NCC(=O)NCC(=O)N[C@@H](CCCNC(=N)N)C(=O)N[C@@H](CO)C(=O)N[C@@H](Cc1ccc(O)cc1)C(=O)N[C@@H](CCCNC(=N)N)C(=O)N[C@@H](CCC(N)=O)C(=O)N[C@@H](CO)C(=O)N[C@@H](COP(=O)(O)O)C(=O)N[C@@H](C)C(=O)N[C@@H](CC(N)=O)C(=O)N[C@@H](CC(C)C)C(=O)N[C@@H](CC(C)C)C(=O)N[C@@H](CS)C(=O)N[C@@H](Cc1ccccc1)C(=O)O)[C@@H](C)O)[C@@H](C)OP(=O)(O)O)C(C)C [GR_L525A] (H-KTIVPA[pT]APQLTPGGGGGRSYRQS[pS]ANLLCF-OH) | 63.1 | – | – |
| CC(C)C[C@H](NC(=O)[C@H](CC(N)=O)NC(=O)[C@H](C)NC(=O)[C@H](COP(=O)(O)O)NC(=O)[C@H](CO)NC(=O)[C@H](CCC(N)=O)NC(=O)[C@H](CCCNC(=N)N)NC(=O)[C@H](Cc1ccc(O)cc1)NC(=O)[C@H](CO)NC(=O)[C@H](CCCNC(=N)N)NC(=O)CNC(=O)CNC(=O)CNC(=O)CNC(=O)CNC(=O)[C@@H]1CCCN1C(=O)[C@@H](NC(=O)[C@H](CC(C)C)NC(=O)[C@H](CCC(N)=O)NC(=O)[C@@H]1CCCN1C(=O)[C@H](CC(C)C)NC(=O)[C@@H](NC(=O)[C@H](C)NC(=O)[C@@H]1CCCN1C(=O)[C@@H](NC(=O)[C@H](C)NC(=O)[C@@H](NC(=O)[C@@H](N)CCCCN)[C@@H](C)O)C(C)C)[C@@H](C)OP(=O)(O)O)[C@@H](C)O)C(=O)N[C@@H](CC(C)C)C(=O)N[C@@H](CS)C(=O)N[C@@H](Cc1ccccc1)C(=O)O [GR_I520A] (H-KTAVPA[pT]LPQLTPGGGGGRSYRQS[pS]ANLLCF-OH) | 50.1 | – | – |
| CC(C)C[C@H](NC(=O)[C@H](CS)NC(=O)[C@H](CC(N)=O)NC(=O)[C@H](CCC(=O)O)NC(=O)[C@@H](N)CC(=O)O)C(=O)N[C@@H](CC(C)C)C(=O)N[C@@H](COP(=O)(O)O)C(=O)N1CCC[C@H]1C(=O)N[C@@H](CC(C)C)C(=O)N[C@@H](C)C(=O)NCC(=O)N[C@@H](CCC(=O)O)C(=O)N[C@@H](CC(=O)O)C(=O)O [GR_pS226] (H-DENCLL[pS]PLAGED-OH; N-terminus assumed) | – | > 150000 | – |
| {FITC′}-NLNRST[pS]VPENPK (peptide, UniProt P04150 128-140, looked up, also: phosphoserine at 134 (S5 or S7), glucocorticoid receptor (GR), human; 13-mer centred on S134; also called 13-mer peptide centered on GR S134; source: synthetic peptide) [GR_pS134, FITC-labelled 13-mer phosphopeptide] | – | – | Kd [1]: 110000 nM |
| {FITC}-INEQRM[pT]LPCMYD (peptide, UniProt P04150 629-641, looked up, glucocorticoid receptor (GR), human; 13-mer centred on T635; source: synthetic peptide) [GR pT635, FITC-labelled 13-mer phosphopeptide] | – | – | binding result [1]: binds |
